Our source for the IC50 values is patent publication US9663486B2, “Selectively substituted quinoline compounds” (EISAI R&D MANAGEMENT CO., LTD., priority 2013, dated 2017).

This experiment addresses T1, Human TLR7 (Homo sapiens, UniProt Q9NYK1).
T1 construct: stably and individually express human TLR4, TLR7 or TLR9 full-length ORF cDNAs; host or cells: HEK-293 (ATCC) with ELAM-1 NF-kappaB luciferase reporter
T1 sequence (Q9NYK1 27-1049): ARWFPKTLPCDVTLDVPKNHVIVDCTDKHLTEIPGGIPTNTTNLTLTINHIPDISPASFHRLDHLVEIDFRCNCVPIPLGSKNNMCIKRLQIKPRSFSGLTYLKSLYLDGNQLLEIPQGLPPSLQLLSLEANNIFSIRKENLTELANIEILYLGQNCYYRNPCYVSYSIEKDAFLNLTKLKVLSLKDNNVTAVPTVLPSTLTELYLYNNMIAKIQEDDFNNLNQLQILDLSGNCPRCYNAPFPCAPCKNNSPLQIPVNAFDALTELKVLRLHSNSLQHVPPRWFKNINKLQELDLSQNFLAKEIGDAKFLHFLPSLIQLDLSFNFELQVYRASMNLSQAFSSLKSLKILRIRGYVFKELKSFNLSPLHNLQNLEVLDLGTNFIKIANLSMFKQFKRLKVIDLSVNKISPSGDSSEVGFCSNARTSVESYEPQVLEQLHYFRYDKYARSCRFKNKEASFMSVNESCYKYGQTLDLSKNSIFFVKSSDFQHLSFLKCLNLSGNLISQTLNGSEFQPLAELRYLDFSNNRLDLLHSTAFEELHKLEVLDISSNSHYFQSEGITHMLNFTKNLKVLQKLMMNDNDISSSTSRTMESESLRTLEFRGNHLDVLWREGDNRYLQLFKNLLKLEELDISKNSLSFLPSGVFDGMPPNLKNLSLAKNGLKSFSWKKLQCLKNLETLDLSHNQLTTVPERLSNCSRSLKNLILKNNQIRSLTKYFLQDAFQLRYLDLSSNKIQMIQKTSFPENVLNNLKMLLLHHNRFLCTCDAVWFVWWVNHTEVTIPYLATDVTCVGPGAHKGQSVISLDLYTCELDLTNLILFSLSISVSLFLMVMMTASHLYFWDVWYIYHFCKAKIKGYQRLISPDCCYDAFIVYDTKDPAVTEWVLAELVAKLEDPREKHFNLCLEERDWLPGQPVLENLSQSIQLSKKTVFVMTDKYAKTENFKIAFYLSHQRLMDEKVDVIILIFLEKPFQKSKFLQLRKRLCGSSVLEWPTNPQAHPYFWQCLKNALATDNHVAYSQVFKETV
Description: HEK-293 NFkB-luciferase reporter assay, CL097 stimulation. It counts as cell-based. The following applies: ligand CL097. The text has this:
HEK-293 cells (ATCC) were engineered to stably express a NF-kappaB transcription factor inducible E-selectin (ELAM-1) luciferase reporter derived from the plasmid pGL3 (Promega) containing base pairs −2241 bp to −254 bp from the promoter of the human E-selectin gene (Accession No. NM_000450). These cells were then subsequently engineered to stably and individually express human TLR4, TLR7 or TLR9 full-length ORF cDNAs. Human TLR4 cDNA (Accession No. NM_138554) was cloned into pcDNA 3.0 expression vector (Invitrogen). TLR4 transfected cells were also engineered to express human MD-2 co-receptor [MD-2 cDNA (Accession No. NM_015364) was cloned into the pEF-BOS vector] and were supplemented with 10 nM soluble CD14 (R&D Systems) in the media to optimize LPS responsiveness. Human TLR9 cDNA (Accession No. NM_017442) was cloned into the pBluescript II KS vector (Agilent). Human TLR7 cDNA (Accession No. NM_016562) was obtained from OriGene. HEK-293 cells stably expressing human TLR8 (Accession No. NM_138636) or mouse TLR7 (Accession No. NM_133211) were purchased from InvivoGen and were then stably transfected with pNiFty2(NF-kappaB)-luciferase reporter plasmid (InvivoGen). Each cell type was plated in Dulbecco's modified Eagle's medium (DMEM) containing 10% fetal bovine serum (FBS) at a density of 2.22×10^5 cells/ml into a 384-well plate and incubated for 2 days at 37° C., 5% CO2. […]

For `C[C@H]1C[C@@H](N)CN(c2ccc(C#N)c3ncccc23)C1` [ER-888840, 5-((3R,5S)-3-amino-5-methylpiperidin-1-yl)quinoline-8-carbonitrile], the IC50 was 0.2 nM.
